pIC50: −log10 of the molar value. Structures can show the parent of a compound that is named as a salt.
Key:
[1] = system: isolated mouse vas deference; assay: Opioid activity test using the isolated mouse vas deference preparation (electrically stimulated contractions); assay type: cell-based, mouse (male ddy); conditions: suppression of electrically stimulated contractions
Experimental: Opioid Activity Test Using the Isolated Mouse Vas Deference Preparation
(§1) A male ddy mouse was used in this test. The isolated vas deference was filled with Krebes-Henseleit solution (NaCl 118 mM; KCl 4.7 mM; CaCl2 2.5 mM; KH2 PO4 1.1 mM; NaHCO3 25 mM; and glucose 10 mM) warmed to 37° C. and suspended in a Magnus tube ventilated with 5% carbon dioxide and 95% oxygen. Electrical stimulus was performed at 0.1 Hz for 5.0 ms by means of ring-shaped platinum electrodes located above and below. Tissue contractions were recorded on a polygraph using an isometric transducer.
(§2) Then after adequately washing with nutrient solution and the contraction reaction stabilized, naloxone, a μ […], NTI, a δ […], or norBNI, a κ […], were added and the test compound was again cumulatively added after roughly 20 minutes. The Ke value was calculated using the following calculation formula from the difference in the efficacies of both agonists.

κ receptor = target: T1, κ receptor (Mus musculus, UniProt P33534); assay: Ke with norBNI in isolated mouse vas deference preparation; assay type: cell-based, mouse (male ddy); conditions: for Ke norBNI: norBNI (κ)
T1 construct: The isolated vas deference was filled with Krebes-Henseleit solution; from tissue; host or cells: isolated vas deferens of male ddy mouse
T1 sequence (P33534 whole entry): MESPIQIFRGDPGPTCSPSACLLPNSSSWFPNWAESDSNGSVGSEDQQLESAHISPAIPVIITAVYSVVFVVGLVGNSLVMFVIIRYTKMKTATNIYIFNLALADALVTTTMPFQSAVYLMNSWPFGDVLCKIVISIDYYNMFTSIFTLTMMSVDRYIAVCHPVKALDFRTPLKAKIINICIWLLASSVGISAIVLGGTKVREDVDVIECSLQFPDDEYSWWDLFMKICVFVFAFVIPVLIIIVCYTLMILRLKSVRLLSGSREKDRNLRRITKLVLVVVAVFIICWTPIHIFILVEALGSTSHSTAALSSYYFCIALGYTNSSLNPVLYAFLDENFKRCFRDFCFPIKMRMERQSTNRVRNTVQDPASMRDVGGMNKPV
Experimental: as §1, §2
(§3) Ke=[Conc. of added agonist]/(IC50 ratio-1)
(§4) IC50 ratio IC50 in the presence of agonist/IC50 in the absence of agonist

δ receptor = target: T2, δ receptor (Mus musculus, UniProt P32300); assay: Ke with NTI in isolated mouse vas deference preparation; assay type: cell-based, mouse (male ddy); conditions: for Ke NTI: NTI (δ)
T2 construct: The isolated vas deference was filled with Krebes-Henseleit solution; from tissue; host or cells: isolated vas deferens of male ddy mouse
T2 sequence (P32300 whole entry): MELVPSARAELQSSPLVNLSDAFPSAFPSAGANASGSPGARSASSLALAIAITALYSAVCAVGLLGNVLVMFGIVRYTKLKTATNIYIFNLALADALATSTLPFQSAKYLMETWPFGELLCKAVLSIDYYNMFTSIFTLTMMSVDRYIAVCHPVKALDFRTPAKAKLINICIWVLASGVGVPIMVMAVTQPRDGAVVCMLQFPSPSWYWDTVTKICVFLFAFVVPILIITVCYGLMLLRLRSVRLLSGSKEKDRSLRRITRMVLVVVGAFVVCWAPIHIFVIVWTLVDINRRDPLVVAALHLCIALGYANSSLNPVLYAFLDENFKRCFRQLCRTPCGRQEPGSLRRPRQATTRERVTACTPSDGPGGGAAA
Experimental: as §1, §2, §3, §4

μ receptor = target: T3, μ receptor (Mus musculus, UniProt P42866); assay: Ke with naloxone in isolated mouse vas deference preparation; assay type: cell-based, mouse (male ddy)
T3 construct: The isolated vas deference was filled with Krebes-Henseleit solution; from tissue; host or cells: isolated vas deferens of male ddy mouse
T3 sequence (P42866 whole entry): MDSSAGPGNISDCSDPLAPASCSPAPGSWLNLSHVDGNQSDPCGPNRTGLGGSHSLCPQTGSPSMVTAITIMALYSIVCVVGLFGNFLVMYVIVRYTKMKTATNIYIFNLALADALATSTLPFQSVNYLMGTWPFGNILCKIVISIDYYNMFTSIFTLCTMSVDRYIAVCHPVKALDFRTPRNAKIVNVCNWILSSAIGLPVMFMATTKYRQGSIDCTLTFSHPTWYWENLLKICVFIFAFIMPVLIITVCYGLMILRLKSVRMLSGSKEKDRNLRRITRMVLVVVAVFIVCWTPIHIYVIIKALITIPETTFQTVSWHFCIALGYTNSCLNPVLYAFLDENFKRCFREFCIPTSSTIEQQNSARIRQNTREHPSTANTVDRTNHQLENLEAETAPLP
Experimental: as §1, §2, §3, §4

ddY mice = assay: animal or person; assay type: in vivo, mouse (ddY); conditions: mouse, s.c. 15 min before i.p. 0.6% acetic acid
Experimental: Analgesic Activity Test Using the Acetic Acid-induced Writhing Method
5 week old ddY mice were used in this test. After intraperitoneal administration of 0.1 ml of 0.6% aqueous acetic acid per 10 g of body weight, the number of writhing reactions that occurred in 10 minutes starting 10 minutes after administration was evaluated for the indicator. The test drug was administered subcutaneously into the backs of the animals 15 minutes before administration of acetic acid.

Wistar rats = assay: Evaluation of diuretic action; assay type: in vivo, rat (male Wistar); conditions: sc, rat, s.c., urine output for 5 h after 20 ml/kg saline oral; for ED200: read-out: ED200, diuretic action (dose giving urine output of 200, non-dosed group = 100)
Experimental: Evaluation of Diuretic Action
7-8 week old male Wistar rats were used in this test after prohibiting from drinking water for 1 hour before testing. After discharging any urine accumulated in the bladder by gently stimulating the lower abdomens of the animals, the drug was administered subcutaneously. After 30 minutes, the animals were then forcibly given 20 ml/kg of physiological saline orally. The animals were then placed in metabolic cages immediately after administration of the drug (2 animals/cage) and urine output for 5 hours after loading with physiological saline was measured. Drug efficacy was expressed in the form of those doses resulting in urine outputs of 200 and 500, respectively, when the urine output of a non-dosed group was taken to be 100. Those doses were expressed as the ED200 and ED500 values, respectively.

SMILES | pIC50 [1] | selective agonist for κ receptors (in words) (κ receptor) | Ke norBNI (κ receptor) [nM] | Ke NTI (δ receptor) [nM] | Ke Naloxone (μ receptor) [nM] | ED50, acetic acid writhing (ddY mice) [µg/kg] | ED200 (Wistar rats) [µg/kg] | ED50 (ddY mice; sc, read-out: ED50, acetic acid writhing) [µg/kg] | selective agonist for δ receptors (in words) (δ receptor) | ED500 (Wistar rats; read-out: ED500, diuretic action (dose giving urine output of 500, non-dosed group = 100)) [µg/kg]
CN(C(=O)/C=C/c1cccc(C(F)(F)F)c1)[C@@H]1CC[C@@]2(O)[C@H]3Cc4ccc(O)c5c4[C@@]2(CCN3CC2CC2)[C@H]1O5 [Compound 60, 17-cyclopropylmethyl-3,14β-dihydroxy-4,5α-epoxy-60-(N-methyl-3-trifluoromethylcinnaiamido)morphinan.tartrate] | 9.33 | selective agonists for κ receptors | 3.20 | 291 |  |  |  |  |  | 
Cc1cccc(/C=C/C(=O)N(C)[C@@H]2CC[C@@]3(O)[C@H]4Cc5ccc(O)c6c5[C@@]3(CCN4CC3CC3)[C@H]2O6)c1 [Compound 69, 17-cyclopropylmethyl-3,14β-dihydroxy-4,5α-epoxy-6β-(N-methyl-3-methylcinnamamido)morphinan.hydrochloride] | 9.49 | selective agonists for κ receptors | 1.95 | 64.5 | 1780 |  |  |  |  | 
CN(C(=O)CSc1ccccc1)[C@H]1CC[C@@]2(O)[C@H]3Cc4ccc(O)c5c4[C@@]2(CCN3CC2CC2)[C@H]1O5 [Compound 45, 17-cyclopropylmethyl-4,5α-epoxy-3,14,β-dihydroxy-6α-(N-methylthiophenoxyacetamido)morphinan.tartrate] |  | selective agonists for κ receptors | 0.416 | 135 | 26.5 | 3.8 | 8.1 |  |  | 
CN(C(=O)/C=C/c1ccco1)[C@@H]1CC[C@@]2(O)[C@H]3Cc4ccc(O)c5c4[C@@]2(CCN3CC2CC2)[C@H]1O5 [Compound 70, 17-cyclopropylmethyl-3,14β-dihydroxy-4,5α-epoxy-62. [N-methyl-trans-3-(2-furyl)acrylamido] morphinan.hydrochloride] | 9.26 | selective agonists for κ receptors | 0.198 |  |  |  |  |  |  | 
COc1cccc(/C=C/C(=O)N(C)[C@@H]2CC[C@@]3(O)[C@H]4Cc5ccc(O)c6c5[C@@]3(CCN4CC3CC3)[C@H]2O6)c1 [Compound 63] | 9.13 | selective agonists for κ receptors | 1.60 | 96.9 | 60.9 |  | 3.8 | 1.1 |  | 
CC(=O)Oc1ccc2c3c1O[C@H]1[C@H](N(C)C(=O)/C=C/c4ccccc4)CC[C@@]4(O)[C@@H](C2)N(CC2CC2)CC[C@]314 [Compound 140, 17-Cyclopropylmethyl-3-acetoxy-14β-hydroxy-4,5α-epoxy-6β-(N-methylcinnamamido)morphinan.tartrate] |  | selective agonists for κ receptors | 1.06 | 261 | 320 | 3.4 |  |  |  | 
CN(C(=O)/C=C/c1cccc(F)c1)[C@H]1CC[C@@]2(O)[C@H]3Cc4ccc(O)c5c4[C@@]2(CCN3CC2CC2)[C@H]1O5 [Compound 96, 17-cyclopropylmethyl-3,14β-dihydroxy-4,5α-epoxy-6α-(N-methyl-3-fluorocinnamamido)morphinan.tartrate] |  |  | 4.21 | 1.61 | 32.5 | 0.86 | 1.3 |  | selective agonists for δ receptors | 
CN(C(=O)CC(=O)c1ccccc1)[C@H]1CC[C@@]2(O)[C@H]3Cc4ccc(O)c5c4[C@@]2(CCN3CC2CC2)[C@H]1O5 [Compound 98, 17-cyclopropylmethyl-3,14β-dihydroxy-4,5α-epoxy-6α-(N-methylbenzoylacetamido)morphinan.tartrate] |  | selective agonists for κ receptors | 1.35 |  |  | 6.8 | 6.5 |  |  | 
CN(C(=O)/C=C/c1ccoc1)[C@@H]1CC[C@@]2(O)[C@H]3Cc4ccc(O)c5c4[C@@]2(CCN3CC2CC2)[C@H]1O5 [Compound 61, 17-cyclopropylmethyl-3,14β-dihydroxy-4,5α-epoxy-6β-[N-methyl-trans-3-(3-furyl)acrylamido]morphinan.tartrate] | 9.38 |  | 0.164 |  |  |  | 3.2 |  |  | 
CN(C(=O)/C=C/c1cccc(F)c1)[C@@H]1CC[C@@]2(O)[C@H]3Cc4ccc(O)c5c4[C@@]2(CCN3CC2CC2)[C@H]1O5 [Compound 102, 17-cyclopropylmethyl-3,14β-dihydroxy-4,5α-epoxy-6β-(N-methyl-3-fluorocinnamamido)morphinan.tartrate] | 8.80 | selective agonists for κ receptors | 2.37 | 276 |  |  | 1.4 |  |  | 
CCCCOC(=O)N(C)[C@H]1CC[C@@]2(O)[C@H]3Cc4ccc(O)c5c4[C@@]2(CCN3CC2CC2)[C@H]1O5 [Compound 47, 17-cyclopropylmethyl-4,5α-epoxy-3,14β-dihydroxy-6α-(N-methylbutyroxycarbamido)morphinan.tartrate] |  | selective agonists for κ receptors | 0.140 | 10.4 | 63.5 | 0.52 | 1.6 |  |  | 
CN(C(=O)/C=C/c1ccccc1)[C@@H]1CC[C@@]2(O)[C@H]3Cc4ccc(O)c5c4[C@@]2(CCN3CC2CC2)[C@H]1O5 [Compound 99, 17-cyclopropylmethyl-3,14β-dihydroxy-4,5α-epoxy-6β-(N-methylcinnamamido)morphinan.hydrochloride] |  | selective agonists for κ receptors | 0.652 |  | 94.5 | 1.8 | 1.1 |  |  | 
CN(C(=O)/C=C/C1CCCCC1)[C@@H]1CC[C@@]2(O)[C@H]3Cc4ccc(O)c5c4[C@@]2(CCN3CC2CC2)[C@H]1O5 [Compound 68, 17-cyclopropylmethyl-3,14,β-dihydroxy-4,5α-epoxy-6β-(N-methyl-3-cyclohexylacrylamido) morphinan.tartrate] | 9.34 | selective agonists for κ receptors | 1.08 | 143 | 5710 |  | 1.6 |  |  | 
CCC/C=C/C(=O)N(C)[C@@H]1CC[C@@]2(O)[C@H]3Cc4ccc(O)c5c4[C@@]2(CCN3CC2CC2)[C@H]1O5 [Compound 100, 17-cyclopropylmethyl-3,14β-dihydroxy-4,5α-epoxy-6β-(N-methyl-trans-2-hexenamido)morphinan.tartrate] | 9.19 | selective agonists for κ receptors | 0.0717 |  | 1797 |  |  |  |  | 
CCCCCC(=O)N(C)[C@H]1CC[C@@]2(O)[C@H]3Cc4ccc(O)c5c4[C@@]2(CCN3CC2CC2)[C@H]1O5 [Compound 39, 17-cyclopropylmethyl-3,14β-dihydroxy-4,5α-epoxy-6α-(N-methylhexanamido)morphinan.tartrate] |  | selective agonists for κ receptors | 1.01 | 99.3 | 89.9 |  | 4.1 |  |  | 
CN(C(=O)OCc1ccccc1)[C@H]1CC[C@@]2(O)[C@H]3Cc4ccc(O)c5c4[C@@]2(CCN3CC2CC2)[C@H]1O5 [Compound 42, 17-cyclopropylmethyl-3,14β-dihydroxy-4,5α-epoxy-6α-(N-methylbenzyloxycarbamido)morphinan.tartrate] |  | selective agonists for κ receptors | 0.905 | 63.5 | 186 | 1.36 | 0.85 |  |  | 6.1

From patent US6277859A, “Morphinan derivative and its pharmaceutical applications” (priority 1992, dated 2001)
